The record followed here is publication PMC9002265, “A New Series of Strigolactone Analogs Derived From Cinnamic Acids as Germination Inducers for Root Parasitic Plants” (Frontiers in Plant Science, 2022).

Experiment [1] concerns Arabidopsis wild type Col-0. In words: Growth promoting assay and root phenotypic analysis. It is filed as in vivo. The following applies: 1 μM on agar plate. On the procedure:
Sterilized seeds of the Arabidopsis wild type Col-0 were put on the plate containing 1% (w/v) agar-solidified 0.5× Murashige and Skoog (MS) medium, 1% sucrose. Test compounds were dissolved in the medium at 1 μM by 10,000 times dilution from each acetone stock (final concentration of acetone was 0.01% (v/v)). To evaluate the growth promoting effect, these seedlings were cultured horizontally at 22°C for 20 days under LED light (105 μmol/m^2/s) with a 16 h light/8 h dark photoperiod. After the cultivation, flesh weight of shoot was measured. For root phenotypic analysis, these seedlings were cultured verticaly at 22°C for 11 days under LED light (105 μmol/m^2/s) with a 16 h light/8 h dark photoperiod. After the cultivation, root length was measured by using ImageJ software and number of lateral roots was counted by using a microscope.

In a further experiment the target is T1, ShHTL7 (Striga hermonthica, UniProt A0A0M3PNA2).
T1 sequence (A0A0M3PNA2 1-271): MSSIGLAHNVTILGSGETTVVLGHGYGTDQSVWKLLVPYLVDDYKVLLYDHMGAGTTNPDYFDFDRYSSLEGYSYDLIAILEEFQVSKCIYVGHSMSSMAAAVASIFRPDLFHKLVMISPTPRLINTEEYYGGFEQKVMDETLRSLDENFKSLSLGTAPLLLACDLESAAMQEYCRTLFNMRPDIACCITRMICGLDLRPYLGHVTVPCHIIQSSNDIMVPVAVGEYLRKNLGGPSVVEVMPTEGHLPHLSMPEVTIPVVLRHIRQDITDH
The experiment in a line: Hydrolysis assay with recombinant ShHTL7. Type of experiment: biochemical. The following applies: 10 μM substrate, 30°C, 60 min. On the procedure: The ORF fragment of ShHTL6 and ShHTL7 was synthesized using IDT gBlock service. The PCR amplified ShHTL6 and ShHTL7 fragment was digested with Nco I and EcoR I, and the digested product was introduced into a modified pET28 vector with an N-terminal His8 tag. Escherichia coli BL21(DE3) was used for protein expression. The overnight culture (12 ml) was added to a fresh LB medium (1.2 L) containing kanamycin (50 mg/L) at 37°C. After OD600 reached 0.8, 0.1 mM IPTG was added and the cell was further incubated at 16°C for 21 h. The culture medium was centrifuged at 3700 g and the pellet was stored at −20°C until use. The pellet was resuspended and sonicated in a lysis buffer (50 mM Tris buffer (pH 8.0) containing 500 mM NaCl, 10 mM 2-mercaptoethanol, and 10% glycerol). The supernatant was purified by Ni Sepharose TM 6 Fast Flow (500 μl, Cytiva). After washing with the washing buffer (50 mM Tris buffer (pH 8.0) containing 500 mM NaCl and 20 mM imidazole), The bound protein was eluted with elution buffer (50 mM Tris buffer (pH 8.0) containing 500 mM NaCl and 200 mM imidazole). The eluate was concentrated using VIVASPIN Turbo 15 (Sartorius), and the concentration was adjusted to 5 mg/ml. The purified protein was aliquoted to the appropriate volume, immediately frozen in liquid nitrogen, and stored at −80°C until use.
(§1) Hydrolysis assays were carried out at 30°C for 60 min in 100 μl of a reaction buffer containing 0.13 pmol recombinant ShHTL7 or AtD14, 10 μM of substrate in 50 mM Phosphate-Na buffer (pH 7.0) containing 2% acetone. The enzyme reaction was stopped by addition of 100 μl of acetonitrile containing 1-naphtaleneacetic acid (NAA; 0.5 ng/μl) as an internal standard. After centrifuged at 13,000 rpm for 5 min, each sample was subjected to LC–MS/MS analysis equipped with reverse-phase column (CORTECS UPLC Phenyl 1.6 μm, ϕ2.1 × 75 mm; Waters). The concentration of remaining substrate and reaction product was calculated by using NAA as an internal standard. Detailed information about the analytical condition is described in Supplementary Table 1.

For a further experiment, the target named is T2, AtD14 (Arabidopsis thaliana, UniProt Q9SQR3).
T2 construct: The cDNA of AtD14 was introduced into pMALHis vector; MBP; His6; made in house; host or cells: E. coli BL21 (DE3)
T2 sequence (Q9SQR3 1-267): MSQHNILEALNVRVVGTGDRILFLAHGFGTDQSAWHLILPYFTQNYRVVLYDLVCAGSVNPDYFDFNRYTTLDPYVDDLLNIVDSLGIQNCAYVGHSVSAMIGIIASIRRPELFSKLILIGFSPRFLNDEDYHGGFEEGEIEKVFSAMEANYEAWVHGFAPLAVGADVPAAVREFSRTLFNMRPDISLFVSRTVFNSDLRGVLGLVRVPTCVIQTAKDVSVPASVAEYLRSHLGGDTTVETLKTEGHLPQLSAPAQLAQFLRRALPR
The experiment in a line: Hydrolysis assay with recombinant AtD14. It is filed as biochemical. The following applies: 10 μM substrate, 30°C, 60 min. On the procedure:
The cDNA of AtD14 was introduced into pMALHis vector that has both MBP-tag and His6-tag. The vector was transformed in to E. coli BL21 (DE3) and the cell was precultured in LB medium containing 50 μg/ml ampicillin. Overnight cultures (10 ml) were added to fresh LB medium (1 L) containing 50 μg/ml ampicillin and it was cultured at 37°C. After OD600 reached to 0.8, the cultures were cooled at 16°C for 1 h, and then 0.1 mM IPTG was added. The culture was further incubated at 16°C for 20 h. The culture medium was centrifuged at 3,700 g and the pellet was stored at −20°C until use. The pellet was resuspended and sonicated in lysis buffer (50 mM Tris buffer (pH 8.0) containing 500 mM NaCl, 10 mM 2-mercaptoethanol, and 10% glycerol). The supernatant was purified by Ni Sepharose TM 6 Fast Flow (500 μl, Cytiva) After washing with the washing buffer (50 mM Tris buffer (pH 8.0) containing 500 mM NaCl and 20 mM imidazole), The bound protein was eluted with elution buffer (50 mM Tris buffer (pH 8.0) containing 500 mM NaCl and 200 mM imidazole). The eluate was concentrated using VIVASPIN Turbo 15 (Sartorius), and the concentration was adjusted to 5 mg/ml. The purified protein was aliquoted to the appropriate volume, immediately frozen in liquid nitrogen, and stored at −80°C until use.
as §1

As for `CC1=CC(OC(=O)/C=C\c2ccccc2)OC1=O` (centres unmarked) [c-CASL1], in experiment [1] (11 days), the lateral root density result is “increased” and the primary root length result is listed as “inhibited”. In addition, the shoot fresh weight entry in experiment [1] (20 days) is “increase”. Further, the “hydrolysis by HTL7” value on ShHTL7 is reported as “can hydrolyze”. At AtD14, the “hydrolysis by AtD14” value was “can hydrolyze”.
